Patent publication US12577206B2 (BRISTOL-MYERS SQUIBB COMPANY, priority 2020, dated 2026)

What was measured:
human FPR1 = molecular target: T1, human FPR1 (Homo sapiens, UniProt P21462); test: FPR1 cyclic adenosine monophosphate (cAMP) assay; assay type: cell-based; details: CHO cells overexpressing human FPR1; forskolin 10 μM; inhibition of cAMP production; HTRF; read-out: hFPR1 cAMP2 EC50
T1 sequence (P21462 1-350): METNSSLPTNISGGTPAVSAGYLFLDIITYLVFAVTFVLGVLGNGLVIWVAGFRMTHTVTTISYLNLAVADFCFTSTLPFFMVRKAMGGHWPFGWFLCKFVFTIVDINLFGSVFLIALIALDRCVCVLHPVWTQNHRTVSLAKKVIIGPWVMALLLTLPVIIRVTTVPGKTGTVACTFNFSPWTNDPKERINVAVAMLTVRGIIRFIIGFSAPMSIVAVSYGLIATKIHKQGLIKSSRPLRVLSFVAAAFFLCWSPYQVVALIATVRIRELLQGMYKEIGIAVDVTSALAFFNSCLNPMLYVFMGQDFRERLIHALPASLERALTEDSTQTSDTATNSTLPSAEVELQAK
Procedure, shortened: (§1)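 CHO cells overexpressing human FPR1 (4,000/well) or FPR2 (2,000/well) were incubated 30 min at room temperature with compound (0.020 nM to 100 μM, 1% DMSO), IBMX 200 μM, and forskolin at 10 μM (FPR1) or 5 μM (FPR2), all final. HTRF cAMP read-out; inhibition fitted by 4-parameter logistic equation.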

human FPR2 = molecular target: T2, human FPR2 (Homo sapiens, UniProt P25090); test: FPR2 cyclic adenosine monophosphate (cAMP) assay; assay type: cell-based; details: CHO cells overexpressing human FPR2; forskolin 5 μM; inhibition of cAMP production; HTRF; read-out: hFPR2 cAMP2 EC50
T2 sequence (P25090 1-351): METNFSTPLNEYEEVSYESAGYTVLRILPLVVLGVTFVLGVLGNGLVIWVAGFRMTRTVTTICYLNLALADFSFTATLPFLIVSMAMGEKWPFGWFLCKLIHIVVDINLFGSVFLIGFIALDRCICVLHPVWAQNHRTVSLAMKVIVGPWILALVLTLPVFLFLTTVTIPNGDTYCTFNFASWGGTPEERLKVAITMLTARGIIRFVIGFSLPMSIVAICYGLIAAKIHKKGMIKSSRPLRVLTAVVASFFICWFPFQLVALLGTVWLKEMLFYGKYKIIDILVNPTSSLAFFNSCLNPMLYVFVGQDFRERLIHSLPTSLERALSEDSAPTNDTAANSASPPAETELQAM
Procedure, shortened: as §1

EC50 (human FPR1)	EC50 (human FPR2)	Compound
2200 nM	1 nM	COc1cc(F)c(-c2c(NC(=O)c3ccc(OC(F)F)cc3)c(=O)n(-c3nc(N4CCCC4C(F)(F)F)ccc3C(F)(F)F)n2C)c(F)c1 (stereo not shown) [Example 302, N-[5-(2,6-difluoro-4-methoxyphenyl)-1-methyl-3-oxo-2-[3-(trifluoromethyl)-6-[2-(trifluoromethyl)pyrrolidin-1-yl]pyridin-2-yl]-2,3-dihydro-1H-pyrazol-4-yl]-4-(difluoromethoxy)benzamide]
> 10000 nM	3 nM	COc1cc(F)c(-c2c(NC(=O)c3ccc(OC(F)F)cc3)c(=O)n(-c3cc(C)cc(OCCO)n3)n2C)c(F)c1 [Example 331, N-(5-(2,6-Difluoro-4-methoxyphenyl)-2-(6-(2-hydroxyethoxy)-4-methylpyridin-2-yl)-1-methyl-3-oxo-2,3-dihydro-1H-pyrazol-4-yl)-4-(difluoromethoxy)benzamide]
590 nM	24 nM	CC(C)Oc1cc(OCCO)nc(-n2c(=O)c(NC(=O)c3ccc(OC(F)(F)F)cc3)c(-c3c(F)cc(Cl)cc3F)n2C)c1 [Example 398, N-(5-(4-chloro-2,6-difluorophenyl)-2-(6-(2-hydroxyethoxy)-4-isopropoxypyridin-2-yl)-1-methyl-3-oxo-2,3-dihydro-1H-pyrazol-4-yl)-4-(trifluoromethoxy)benzamide]
> 10000 nM	9 nM	COc1cc(OCC2CCCO2)nc(-n2c(=O)c(NC(=O)c3ccc(OC(F)F)cc3)c(-c3c(F)cc(OC)cc3F)n2C)c1 (stereo not shown) [Example 350, N-(5-(2,6-Difluoro-4-methoxyphenyl)-2-(4-methoxy-6-((tetrahydrofuran-2-yl)methoxy)pyridin-2-yl)-1-methyl-3-oxo-2,3-dihydro-1H-pyrazol-4-yl)-4-(difluoromethoxy)benzamide]
4100 nM	2 nM	COc1cc(F)c(-c2c(NC(=O)c3ccc(OC(F)F)cc3)c(=O)n(-c3nc(N4CC[C@@H](CO)C4)ccc3C(F)(F)F)n2C)c(F)c1 [Example 292, N-[5-(2,6-difluoro-4-methoxyphenyl)-2-{6-[(3R)-3-(hydroxymethyl)pyrrolidin-1-yl]-3-(trifluoromethyl)pyridin-2-yl}-1-methyl-3-oxo-2,3-dihydro-1H-pyrazol-4-yl]-4-(difluoromethoxy)benzamide]
> 10000 nM	7 nM	CCc1ccc(N2CC(C)(O)C2)nc1-n1c(=O)c(NC(=O)c2ccc(OC(F)F)cc2)c(-c2c(F)cc(OC)cc2F)n1C [Example 310, N-[5-(2,6-difluoro-4-methoxyphenyl)-2-[3-ethyl-6-(3-hydroxy-3-methylazetidin-1-yl)pyridin-2-yl]-1-methyl-3-oxo-2,3-dihydro-1H-pyrazol-4-yl]-4-(difluoromethoxy)benzamide]
1600 nM	58 nM	COc1cc(O)nc(-n2c(=O)c(NC(=O)c3ccc(OC(F)F)cc3)c(-c3c(F)cc(OC)cc3F)n2C)c1 [Example 326, N-(5-(2,6-Difluoro-4-methoxyphenyl)-2-(6-hydroxy-4-methoxypyridin-2-yl)-1-methyl-3-oxo-2,3-dihydro-1H-pyrazol-4-yl)-4-(difluoromethoxy)benzamide]
> 5000 nM	1 nM	COc1cc(F)c(-c2c(NC(=O)c3ccc(OC(F)F)cc3)c(=O)n(-c3nc(Nc4cn(C)nc4C)ccc3C(F)(F)F)n2C)c(F)c1 [Example 228, N-[5-(2,6-difluoro-4-methoxyphenyl)-2-{6-[(1,3-dimethyl-1H-pyrazol-4-yl)amino]-3-(trifluoromethyl)pyridin-2-yl}-1-methyl-3-oxo-2,3-dihydro-1H-pyrazol-4-yl]-4-(difluoromethoxy)benzamide]
> 10000 nM	8 nM	CCOc1ccc(Cl)nc1-n1c(=O)c(NC(=O)c2ccc(OC(F)F)cc2)c(-c2c(F)cc(OC)cc2F)n1C [Example 248, N-[2-(6-chloro-3-ethoxypyridin-2-yl)-5-(2,6-difluoro-4-methoxyphenyl)-1-methyl-3-oxo-2,3-dihydro-1H-pyrazol-4-yl]-4-(difluoromethoxy)benzamide]
> 10000 nM	7 nM	COc1cc(F)c(-c2c(NC(=O)c3ccc(OC(F)F)cc3)c(=O)n(-c3nc(S(C)(=O)=O)ccc3C(F)(F)F)n2C)c(F)c1 [Example 318, N-[5-(2,6-difluoro-4-methoxyphenyl)-2-[6-methanesulfonyl-3-(trifluoromethyl)pyridin-2-yl]-1-methyl-3-oxo-2,3-dihydro-1H-pyrazol-4-yl]-4-(difluoromethoxy)benzamide]
440 nM	14 nM	COc1cc(F)c(-c2c(NC(=O)c3ccc(OC(F)F)cc3)c(=O)n(-c3nc(OCC(C)(C)O)ccc3Cl)n2C)c(F)c1 [Example 298, N-{2-[3-chloro-6-(2-hydroxy-2-methylpropoxy)pyridin-2-yl]-5-(2,6-difluoro-4-methoxyphenyl)-1-methyl-3-oxo-2,3-dihydro-1H-pyrazol-4-yl}-4-(difluoromethoxy)benzamide]

The remaining lines, values behind:

Compound	EC50 (human FPR1)	EC50 (human FPR2)
COc1cc(F)c(-c2c(NC(=O)c3ccc(OC(F)F)cc3)c(=O)n(-c3nc(C(C)(C)C)ccc3C#N)n2C)c(F)c1 [Example 190, N-[2-(6-tert-butyl-3-cyanopyridin-2-yl)-5-(2,6-difluoro-4-methoxyphenyl)-1-methyl-3-oxo-2,3-dihydro-1H-pyrazol-4-yl]-4-(difluoromethoxy)benzamide]	> 10000 nM	3 nM
COc1cc(F)c(-c2c(NC(=O)c3ccc(OC(F)F)cc3)c(=O)n(-c3cc(F)cc(OC(C)C)c3)n2C)c(F)c1 [Example 125, N-[5-(2,6-difluoro-4-methoxyphenyl)-2-[3-fluoro-5-(propan-2-yloxy)phenyl]-1-methyl-3-oxo-2,3-dihydro-1H-pyrazol-4-yl]-4-(difluoromethoxy)benzamide]	2000 nM	4 nM
COc1cc(F)c(-c2c(NC(=O)c3ccc(OC(F)(F)F)cc3)c(=O)n(-c3cccc(OC(F)F)n3)n2C)c(F)c1 [Example 169, N-[5-(2,6-difluoro-4-methoxyphenyl)-2-[6-(difluoromethoxy)pyridin-2-yl]-1-methyl-3-oxo-2,3-dihydro-1H-pyrazol-4-yl]-4-(trifluoromethoxy)benzamide]	1400 nM	15 nM
COc1cc(F)c(-c2c(NC(=O)c3ccc(OC(F)(F)F)cc3)c(=O)n(-c3cc(Cl)ccn3)n2C)c(F)c1 [Example 153, N-[2-(4-chloropyridin-2-yl)-5-(2,6-difluoro-4-methoxyphenyl)-1-methyl-3-oxo-2,3-dihydro-1H-pyrazol-4-yl]-4-(trifluoromethoxy)benzamide]	4200 nM	5 nM
COc1cc(F)c(-c2c(NC(=O)c3ccc(OC(F)(F)F)cc3)c(=O)n(-c3ccccc3C#N)n2C)c(F)c1 [Example 174, N-[2-(2-cyanophenyl)-5-(2,6-difluoro-4-methoxyphenyl)-1-methyl-3-oxo-2,3-dihydro-1H-pyrazol-4-yl]-4-(trifluoromethoxy)benzamide]	> 10000 nM	7 nM
COc1cc(F)c(-c2c(NC(=O)c3ccc(OC(F)F)cc3)c(=O)n(-c3cc(F)ccc3C#N)n2C)c(F)c1 [Example 188, N-[2-(2-cyano-5-fluorophenyl)-5-(2,6-difluoro-4-methoxyphenyl)-1-methyl-3-oxo-2,3-dihydro-1H-pyrazol-4-yl]-4-(difluoromethoxy)benzamide]	> 10000 nM	14 nM
COc1cc(F)c(-c2c(NC(=O)c3ccc(OC(F)F)cc3)c(=O)n(-c3ncccc3OC(F)F)n2C)c(F)c1 [Example 158, N-[5-(2,6-difluoro-4-methoxyphenyl)-2-[3-(difluoromethoxy)pyridin-2-yl]-1-methyl-3-oxo-2,3-dihydro-1H-pyrazol-4-yl]-4-(difluoromethoxy)benzamide]	> 10000 nM	13 nM
COc1cc(F)c(-c2c(NC(=O)c3ccc(OC(F)F)cc3)c(=O)n(-c3nccc(C)c3Cl)n2C)c(F)c1 [Example 180, N-[2-(3-chloro-4-methylpyridin-2-yl)-5-(2,6-difluoro-4-methoxyphenyl)-1-methyl-3-oxo-2,3-dihydro-1H-pyrazol-4-yl]-4-(difluoromethoxy)benzamide]	> 10000 nM	8 nM
COc1cc(F)c(-c2c(NC(=O)c3ccc(OC(F)(F)F)cc3)c(=O)n(-c3ccccc3F)n2C)c(F)c1 [Example 28, N-[5-(2,6-difluoro-4-methoxyphenyl)-2-(2-fluorophenyl)-1-methyl-3-oxo-2,3-dihydro-1H-pyrazol-4-yl]-4-(trifluoromethoxy)benzamide]	2500 nM	10 nM
